{"source": "paper PMC12454493", "about": "“Insight on novel sulfamoylphenyl pyrazole derivatives as anticancer carbonic anhydrase inhibitors” (Molecular Diversity, 2024)", "format_in_all_cases": "cell-based", "key": {"HOP-92": {"system": "HOP-92", "experiment": "NCI-60 one-dose SRB screen (Non-Small Cell Lung Cancer)", "conditions": "Homo sapiens, single dose 10 µM, 48 h, read-out: Growth inhibition percent (GI %)", "protocol": "(§1) The National Cancer Institute (NCI) Developmental Therapeutic Program (www.dtp.nci.nih.gov) selected the 20 novel synthesized compounds 4a-e, 5a-e, 6a-c, 9a-e, 10 and 11 to test for their anticancer activity at a single dose of 10 µM using SRB assay. […] Supplementary Data S3; Table S1 presents the detailed screening results of the most promising compounds. The preliminary screening’s detailed results for the remaining compounds are elucidated in the (Supplementary Data S3; Table S2).\n(§2) The guidelines of the Drug Evaluation Branch’s protocol at the NCI in Bethesda served as the basis for the in vitro anticancer screening assays. at one dose 10 µM against a panel of 60 cancer cell lines. The human tumor cell lines used belonged to nine panels: leukemia, melanoma, lung, colon, CNS, ovarian, renal, prostate and breast cancers using the sulforhodamine B (SRB) assay in a 48 h drug exposure protocol."}, "NCI-H322M": {"system": "NCI-H322M", "experiment": "NCI-60 one-dose SRB screen (Non-Small Cell Lung Cancer)", "conditions": "Homo sapiens, single dose 10 µM, 48 h, read-out: Growth inhibition percent (GI %)", "protocol": "as §1, §2"}, "HOP-62": {"system": "HOP-62", "experiment": "NCI-60 one-dose SRB screen (Non-Small Cell Lung Cancer)", "conditions": "Homo sapiens, single dose 10 µM, 48 h, read-out: Growth inhibition percent (GI %)", "protocol": "as §1, §2"}, "NCI-H522": {"system": "NCI-H522", "experiment": "NCI-60 one-dose SRB screen (Non-Small Cell Lung Cancer)", "conditions": "Homo sapiens, single dose 10 µM, 48 h, read-out: Growth inhibition percent (GI %)", "protocol": "as §1, §2"}, "SF-539": {"system": "SF-539", "experiment": "NCI-60 one-dose SRB screen (CNS Cancer)", "conditions": "Homo sapiens, single dose 10 µM, 48 h, read-out: Growth inhibition percent (GI %)", "protocol": "as §1, §2"}, "SF-295": {"system": "SF-295", "experiment": "NCI-60 one-dose SRB screen (CNS Cancer)", "conditions": "Homo sapiens, single dose 10 µM, 48 h, read-out: Growth inhibition percent (GI %)", "protocol": "as §1, §2"}, "SNB-19": {"system": "SNB-19", "experiment": "NCI-60 one-dose SRB screen (CNS Cancer)", "conditions": "Homo sapiens, single dose 10 µM, 48 h, read-out: Growth inhibition percent (GI %)", "protocol": "as §1, §2"}, "SF-268": {"system": "SF-268", "experiment": "NCI-60 one-dose SRB screen (CNS Cancer)", "conditions": "Homo sapiens, single dose 10 µM, 48 h, read-out: Growth inhibition percent (GI %)", "protocol": "as §1, §2"}, "U251": {"system": "U251", "experiment": "NCI-60 one-dose SRB screen (CNS Cancer)", "conditions": "Homo sapiens, U-251, single dose 10 µM, 48 h, read-out: Growth inhibition percent (GI %)", "protocol": "as §1, §2"}, "SNB-75": {"system": "SNB-75", "experiment": "NCI-60 one-dose SRB screen (CNS Cancer)", "conditions": "Homo sapiens, single dose 10 µM, 48 h, read-out: Growth inhibition percent (GI %)", "protocol": "as §1, §2"}, "UO-31": {"system": "UO-31", "experiment": "NCI-60 one-dose SRB screen (Renal Cancer)", "conditions": "Homo sapiens, single dose 10 µM, 48 h, read-out: Growth inhibition percent (GI %)", "protocol": "as §1, §2"}, "RXF 393": {"system": "RXF 393", "experiment": "NCI-60 one-dose SRB screen (Renal Cancer)", "conditions": "Homo sapiens, single dose 10 µM, 48 h, read-out: Growth inhibition percent (GI %)", "protocol": "as §1, §2"}, "786-0": {"system": "786-0", "experiment": "NCI-60 one-dose SRB screen (Renal Cancer)", "conditions": "Homo sapiens, single dose 10 µM, 48 h, read-out: Growth inhibition percent (GI %)", "protocol": "as §1, §2"}, "A498": {"system": "A498", "experiment": "NCI-60 one-dose SRB screen (Renal Cancer)", "conditions": "Homo sapiens, single dose 10 µM, 48 h, read-out: Growth inhibition percent (GI %)", "protocol": "as §1, §2"}, "ACHN": {"system": "ACHN", "experiment": "NCI-60 one-dose SRB screen (Renal Cancer)", "conditions": "Homo sapiens, single dose 10 µM, 48 h, read-out: Growth inhibition percent (GI %)", "protocol": "as §1, §2"}, "TK-10": {"system": "TK-10", "experiment": "NCI-60 one-dose SRB screen (Renal Cancer)", "conditions": "Homo sapiens, single dose 10 µM, 48 h, read-out: Growth inhibition percent (GI %)", "protocol": "as §1, §2"}, "CAKI-1": {"system": "CAKI-1", "experiment": "NCI-60 one-dose SRB screen (Renal Cancer)", "conditions": "Homo sapiens, single dose 10 µM, 48 h, read-out: Growth inhibition percent (GI %)", "protocol": "as §1, §2"}, "MCF-7": {"system": "MCF-7", "experiment": "NCI-60 one-dose SRB screen (Breast Cancer)", "conditions": "Homo sapiens, MCF7, single dose 10 µM, 48 h, read-out: Growth inhibition percent (GI %)", "protocol": "as §1, §2"}, "HS 578T": {"system": "HS 578T", "experiment": "NCI-60 one-dose SRB screen (Breast Cancer)", "conditions": "Homo sapiens, single dose 10 µM, 48 h, read-out: Growth inhibition percent (GI %)", "protocol": "as §1, §2"}, "BT-549": {"system": "BT-549", "experiment": "NCI-60 one-dose SRB screen (Breast Cancer)", "conditions": "Homo sapiens, single dose 10 µM, 48 h, read-out: Growth inhibition percent (GI %)", "protocol": "as §1, §2"}, "MDA-MB-231/ATCC": {"system": "MDA-MB-231/ATCC", "experiment": "NCI-60 one-dose SRB screen (Breast Cancer)", "conditions": "Homo sapiens, single dose 10 µM, 48 h, read-out: Growth inhibition percent (GI %)", "protocol": "as §1, §2"}, "MDA-MB-468": {"system": "MDA-MB-468", "experiment": "NCI-60 one-dose SRB screen (Breast Cancer)", "conditions": "Homo sapiens, single dose 10 µM, 48 h, read-out: Growth inhibition percent (GI %)", "protocol": "as §1, §2"}, "T-47D": {"system": "T-47D", "experiment": "NCI-60 one-dose SRB screen (Breast Cancer)", "conditions": "Homo sapiens, T47D, single dose 10 µM, 48 h, read-out: Growth inhibition percent (GI %)", "protocol": "as §1, §2"}, "NCI/ADR-RES": {"system": "NCI/ADR-RES", "experiment": "NCI-60 one-dose SRB screen (Ovarian cancer)", "conditions": "Homo sapiens, single dose 10 µM, 48 h, read-out: Growth inhibition percent (GI %)", "protocol": "as §1, §2"}, "SK-OV-3": {"system": "SK-OV-3", "experiment": "NCI-60 one-dose SRB screen (Ovarian cancer)", "conditions": "Homo sapiens, single dose 10 µM, 48 h, read-out: Growth inhibition percent (GI %)", "protocol": "as §1, §2"}, "IGROV1": {"system": "IGROV1", "experiment": "NCI-60 one-dose SRB screen (Ovarian cancer)", "conditions": "Homo sapiens, IGROV-1, single dose 10 µM, 48 h, read-out: Growth inhibition percent (GI %)", "protocol": "as §1, §2"}, "OVCAR-4": {"system": "OVCAR-4", "experiment": "NCI-60 one-dose SRB screen (Ovarian cancer)", "conditions": "Homo sapiens, single dose 10 µM, 48 h, read-out: Growth inhibition percent (GI %)", "protocol": "as §1, §2"}, "OVCAR-8": {"system": "OVCAR-8", "experiment": "NCI-60 one-dose SRB screen (Ovarian cancer)", "conditions": "Homo sapiens, single dose 10 µM, 48 h, read-out: Growth inhibition percent (GI %)", "protocol": "as §1, §2"}, "OVCAR-5": {"system": "OVCAR-5", "experiment": "NCI-60 one-dose SRB screen (Ovarian cancer)", "conditions": "Homo sapiens, single dose 10 µM, 48 h, read-out: Growth inhibition percent (GI %)", "protocol": "as §1, §2"}, "OVCAR-3": {"system": "OVCAR-3", "experiment": "NCI-60 one-dose SRB screen (Ovarian cancer)", "conditions": "Homo sapiens, single dose 10 µM, 48 h, read-out: Growth inhibition percent (GI %)", "protocol": "as §1, §2"}}}
{"smiles": "Cc1ccc(-c2nn(-c3ccc(S(N)(=O)=O)cc3)cc2C(=O)OCC(=O)Nc2ccc(S(N)(=O)=O)cc2)cc1", "note": "[Compound 4b, 2-Oxo-2-[(4-sulfamoylphenyl)amino] ethyl 1-(4-sulfamoylphenyl)-3-(p-tolyl)-1H-pyrazole-4-carboxylate]", "values": [{"measurement": "inhibition at 10 µM", "setting": "HOP-92", "value": "< 5", "unit": "%"}, {"measurement": "inhibition at 10 µM", "setting": "NCI-H322M", "value": 6.16, "unit": "%"}, {"measurement": "inhibition at 10 µM", "setting": "HOP-62", "value": "< 5", "unit": "%"}, {"measurement": "inhibition at 10 µM", "setting": "NCI-H522", "value": 25.6, "unit": "%"}, {"measurement": "inhibition at 10 µM", "setting": "SF-539", "value": 20.3, "unit": "%"}, {"measurement": "inhibition at 10 µM", "setting": "SF-295", "value": "< 5", "unit": "%"}, {"measurement": "inhibition at 10 µM", "setting": "SNB-19", "value": "< 5", "unit": "%"}, {"measurement": "inhibition at 10 µM", "setting": "SF-268", "value": 10.3, "unit": "%"}, {"measurement": "inhibition at 10 µM", "setting": "U251", "value": "< 5", "unit": "%"}, {"measurement": "inhibition at 10 µM", "setting": "SNB-75", "value": "< 5", "unit": "%"}, {"measurement": "inhibition at 10 µM", "setting": "UO-31", "value": 14.5, "unit": "%"}, {"measurement": "inhibition at 10 µM", "setting": "RXF 393", "value": "< 5", "unit": "%"}, {"measurement": "inhibition at 10 µM", "setting": "786-0", "value": 9.87, "unit": "%"}, {"measurement": "inhibition at 10 µM", "setting": "A498", "value": "< 5", "unit": "%"}, {"measurement": "inhibition at 10 µM", "setting": "ACHN", "value": "< 5", "unit": "%"}, {"measurement": "inhibition at 10 µM", "setting": "TK-10", "value": "< 5", "unit": "%"}, {"measurement": "inhibition at 10 µM", "setting": "CAKI-1", "value": 15.2, "unit": "%"}, {"measurement": "inhibition at 10 µM", "setting": "MCF-7", "value": "< 5", "unit": "%"}, {"measurement": "inhibition at 10 µM", "setting": "HS 578T", "value": 6.42, "unit": "%"}, {"measurement": "inhibition at 10 µM", "setting": "BT-549", "value": 6.7, "unit": "%"}, {"measurement": "inhibition at 10 µM", "setting": "MDA-MB-231/ATCC", "value": 6.64, "unit": "%"}, {"measurement": "inhibition at 10 µM", "setting": "MDA-MB-468", "value": 18.6, "unit": "%"}, {"measurement": "inhibition at 10 µM", "setting": "T-47D", "value": 17.5, "unit": "%"}, {"measurement": "inhibition at 10 µM", "setting": "NCI/ADR-RES", "value": "< 5", "unit": "%"}, {"measurement": "inhibition at 10 µM", "setting": "SK-OV-3", "value": "< 5", "unit": "%"}, {"measurement": "inhibition at 10 µM", "setting": "IGROV1", "value": "< 5", "unit": "%"}, {"measurement": "inhibition at 10 µM", "setting": "OVCAR-4", "value": "< 5", "unit": "%"}, {"measurement": "inhibition at 10 µM", "setting": "OVCAR-8", "value": "< 5", "unit": "%"}, {"measurement": "inhibition at 10 µM", "setting": "OVCAR-5", "value": 5.99, "unit": "%"}, {"measurement": "inhibition at 10 µM", "setting": "OVCAR-3", "value": "< 5", "unit": "%"}]}
